We go through two molecules from US7596407B2, “Transdermal iontophoretic delivery of piperazinyl-2(3H)-benzoxazolone compounds” (priority 2004, dated 2009).

Data set [1] in a line: HPLC-UV analysis of sample solutions for oxidation or degradation products. The class given is physicochemical. Conditions: HPLC with UV detection, 215 nm. The procedure: 7-(4-methyl-1-piperazinyl)-2(3H)-benzoxazolone was analyzed using HPLC with UV detection (Waters Chromatography, Etten Leur, The Netherlands). A Chromsep SS column was used (250*3 mm L*i.d.) thermostatted at 30° C. The mobile phase consisted of acetonitrile/methanol/0.7 g/l ammonium acetate buffer at pH 5.6 ([…] v/v) and was used at 0.5 ml/min. The detection wavelength was 215 nm.

Data set [2] in a line: Iontophoretic transport across human stratum corneum, three-chamber continuous flow-through diffusion cells. Type of data set: in vitro ADME. To be noted: for iontophoretic flux (averages±s.e.m.): 4 g/l NaCl, citrate buffer pH 5.5, 0.5 mA/cm^2; for mean transport during the iontophoretic period: citrate buffer pH 5.5, 0.5 mA/cm^2, no NaCl added; for mean transport during the iontophoretic period (averages±s.e.m.): drug 35 mg/ml, pH 5.5, 0.5 mA/cm^2. The procedure:
Human Stratum Corneum (HSC) was prepared from dermatomed healthy human skin. Within 24 hours after surgical removal of the human skin (abdominal or breast), residual subcutaneous fat was removed. To avoid interference with contaminating subcutaneous fat, the skin surface was carefully wiped with a tissue paper soaked in 70% ethanol. The skin was dermatomed to a thickness of about 300 μm using a Padgett Electro Dermatome Model B (Kansas City, USA). It was then incubated with the dermal side on Whatman paper soaked in a solution of 0.1% trypsin in PBS overnight at 4° C. and subsequently for 1 hour at 37° C. Then HSC was peeled off from the underlying epidermis and dermis. Remaining trypsin activity was blocked by bathing HSC in a 0.1% trypsin inhibitor solution in PBS, pH 7.4. HSC was washed several times in water and stored in a silica gel containing desiccator in a N2 environment to inhibit oxidation of lipids.
(§1) 7-(4-methyl-1-piperazinyl)-2(3H)-benzoxazolone as a HCl salt was dissolved in 10 mM sodium citrate solution. The pH was adjusted to pH 5.5 with 10 mM citric acid. 7-(4-benzyl-1-piperazinyl)-2(3H)-benzoxazolone as a mesylate salt was dissolved in 0.1 M potassium phosphate buffer. The pH was adjusted to pH 4.0 using o-phosphoric acid.
Iontophoresis experiments with 7-(4-methyl-1-piperazinyl)-2(3H)-benzoxazolone were performed using 9-channel computer controlled power supply to provide constant current (Electronics Department, Gorlaeus Laboratories, Leiden University, The Netherlands.) Alternatively the commercial available Power Supply PCT-MK1 of Moor Instruments, UK can be used. A silver plate electrode was used as an anode (e.g. Silver foil >99.99% pure, 1.0 mm thick (Aldrich article nr. 36,943-8), 5 cm long, 3 mm wide) and a silver/silver chloride electrode (prepared by repeatedly (2 or 3 times) dipping silver wire (>99.99% pure, Ø 1.0 mm (Aldrich art. Nr. 26,559-4), bended at the tip to produce a small projection (approx. 3 mm) at a right angle to the vertical electrode shaft in melted silver chloride powder (>99.999% pure, Aldrich art. Nr. 20,438-2) as a cathode. (Alternatively, the silver plate and silver/silver chloride electrodes can be prepared according to chapter 3.4.3. of Ajay K. Banga, Electrically Assisted Transdermal and Topical Drug Delivery, Taylor and Francis Group Ltd., London UK, 1998, ISBN 0-7484-0687-5. or can be purchased from a commercial supplier such as Iomed.)
All diffusion experiments were carried out at a constant current density of 0.5 mA/cm^2, using three chambers continuous flow through diffusion cells at room temperature. The diffusion set up consisted of a peristaltic pump, a fraction collector and 8 diffusion cells (for diffusion cell see FIG. 4). Stratum corneum was used for all diffusion studies. Human stratum corneum was hydrated for two hours in PBS pH 7.4 prior to mounting in the cells. Two pieces of stratum corneum were placed between the anodal and acceptor side, and between acceptor and cathodal side, with the apical side facing the anodal and cathodal compartments. Dialysis membrane (cut off 5,000 D) was used as supporting membrane for the stratum corneum. Parafilm rings were added for making a tight connection between the compartments. The temperature of the acceptor chamber was 37° C. The flow of PBS through the acceptor chamber was kept approximately constant for each cell during the experiment: 6-8 ml per hour. After six hours of passive diffusion, the current was switched on. The current was switched off at t=15 h. During a period of another 5 hours (post iontophoretic period) passive diffusion post iontophoresis was carried out. During iontophoresis, the current density was 0.5 mA/cm^2. The total resistance of the stratum corneum sheets was monitored during the experiment with two additional silver electrodes. A very low resistance is indicative of leakage of the stratum corneum in a cell. When this was observed, the diffusion data obtained were discarded. […]

Data set [3] is described as follows: Solubility in donor buffer.
Data set [4] in a line: Iontophoretic transport across hairless rat skin, vertical Franz diffusion cells. The class given is in vitro ADME. To be noted: 30 mM NaCl; for change of iontophoretic flux with active substance concentration (FIG. 4): phosphate buffer pH 4.0.
Source text: Hairless rats were euthanized by inhalation of carbon dioxide using an exposure chamber designed for such use half hour before start of experiment. The skin from the abdomen was carefully removed, making sure no muscle or fat was attached to the skin. The skin was then cut into small squares to fit the Franz diffusion set (Membrane Transport System, PermeGear, U.S.A) and placed in 0.1 M potassium phosphate buffer until mounted.
as §1
Iontophoresis experiments with 7-(4-benzyl-1-piperazinyl)-2(3H)-benzoxazolone were performed using vertical Franz diffusion cells (Membrane Transport System, PermeGear, U.S.A) hooked up to a Keithley 2400 source meter and the current monitored using a multimeter. The donor half was of the cell was exposed to room temperature (25° C.) while the receptor half was maintained at 37° C. Receptor compartment was continuously stirred. Freshly excised hairless rat skin was mounted on the vertical diffusion cells, after the receptor compartment had been filled with a suitable receptor media, which can maintain the sink condition. The receptor media had the same composition as the donor solution without the drug, so that the sink conditions could be maintained. The formulation was placed in the donor compartment. A silver wire was used as the anode in the donor and a silver/silver chloride wire was used as the cathode in the receptor. Current was applied for 3 hours using a constant current power source. However, sampling was continued till 24 hrs to see if enhanced delivery will stop on terminating current. Samples were taken at pre-determined time intervals from the receptor and analyzed by the HPLC as described below. Samples were replaced with fresh receptor medium and this was taken into consideration in the calculations.
7-(4-benzyl-1-piperazinyl)-2(3H)-benzoxazolone was analyzed using HPLC with UV detection (Waters Alliance system). A Chromsep SS column was used (150*3 mm L*i.d.) with particle size of 5 μm thermostatted at 40° C. The mobile phase was made using 1.54 g ammonium acetate in 460 ml of water (pH adjusted to 4.6 using acetic acid) and 540 ml of methanol and degassed. The flow rate was 0.5 ml/min. The detection wavelength was 243 nm. Injection volume was 10 μl.

Structures are written as SMILES.

`CN1CCN(c2cccc3[nH]c(=O)oc23)CC1.Cl` [7-(4-methyl-1-piperazinyl)-2(3H)-benzoxazolone monohydrochloride]: in data set [1], the “oxidation or degradation products in chromatograms of the sample solutions” value is “No oxidation or degradation products of the compound were observed”. The “iontophoretic flux (averages±s.e.m.)” value in data set [2] (donor concentration 20 mg/ml) was 409±47 μg/hr/cm^2; in data set [2] (donor concentration 35 mg/ml) it was 467±74 μg/hr/cm^2; in data set [2] (donor concentration 55 mg/ml), 580±87 μg/hr/cm^2. Also, the “mean transport during the iontophoretic period” value is reported as 394±26 μg/hr/cm^2 in data set [2] (donor concentration 20 mg/ml), 383±42 μg/hr/cm^2 in data set [2] (donor concentration 35 mg/ml), 459±59 μg/hr/cm^2 in data set [2] (donor concentration 55 mg/ml) and 418±31 μg/hr/cm^2 in data set [2] (donor concentration 75 mg/ml). The “mean transport during the iontophoretic period (averages±s.e.m.)” value is 471±65 μg/hr/cm^2 in data set [2] (sodium chloride 0 mg/ml), 377±37 μg/hr/cm^2 in data set [2] (sodium chloride 2 mg/ml) and 424±50 μg/hr/cm^2 in data set [2] (sodium chloride 4 mg/ml). Moreover, the “share of the maximum solubility that a 35 mg/ml solution represents” value in data set [3] (35 mg/ml, 10 mM citrate pH 5.5, 4 mg/ml NaCl) was 80%. Moreover, the “share of the maximum solubility that a 55 mg/ml solution represents” value in data set [3] (55 mg/ml in citrate buffer at pH 5.5 in the presence of 4 g/l NaCl) turned out to be 85%. In data set [3] (75 mg/ml in citrate buffer at pH 5.5), the “share of the maximum solubility that a 75 mg/ml solution represents” value came out at 85%. The “dependence of solubility on NaCl concentration” value in data set [3] (citrate pH 5.5, NaCl 0-4 mg/ml) was “increases with reducing NaCl concentration”.
As for `CS(=O)(=O)O.O=c1[nH]c2cccc(N3CCN(Cc4ccccc4)CC3)c2o1` [7-(4-benzyl-1-piperazinyl)-2(3H)-benzoxazolone mesylate], the “permeation with iontophoresis as compared to passive delivery (FIG. 5)” value in data set [4] (current densities 0, 0.1, 0.3 and 0.5 mA) is on record as “considerably enhances the permeation”. Besides, in data set [4] (5 g/ml solution, current densities 0, 0.1, 0.3 and 0.5 mA), the “relationship between flux and current density (FIG. 5)” value is “linear relationship between flux and current density”. Further, the “change of iontophoretic flux with active substance concentration (FIG. 4)” value is reported as “no increase in iontophoretic flux” in data set [4] (further increase to 10 mg/ml) and “increase in iontophoretic flux” in data set [4] (increase from 1 mg/ml to 5 mg/ml).
